What all share (assay): Apparent affinity (EC50) of energy transfer probes by titration onto live HEK293 cells expressing kinase/Nluc fusions (Table S1)
Holding throughout (type): binding

The target of experiment [1] is full-length kinase/Nluc fusion proteins (Homo sapiens, UniProt Q9UF33). The settings on record: EPHA6, Nluc C; read-out: Probe EC50.
Experiment [2] has as its target full-length kinase/Nluc fusion proteins (Homo sapiens, UniProt P17612). Conditions: PRKACA, Nluc C; read-out: Probe EC50.
In experiment [3] the target is full-length kinase/Nluc fusion proteins (Homo sapiens, UniProt O00444). Conditions: PLK4, Nluc N; read-out: Probe EC50.
Experiment [4] addresses full-length kinase/Nluc fusion proteins (Homo sapiens, UniProt Q9NRM7). Conditions: LATS2, Nluc C; read-out: Probe EC50.
Experiment [5] concerns the target full-length kinase/Nluc fusion proteins (Homo sapiens, UniProt Q16816). Conditions: PHKG1, Nluc N; read-out: Probe EC50.
Experiment [6] deals with full-length kinase/Nluc fusion proteins (Homo sapiens, UniProt P33981). Conditions: TTK (NP_003309), Nluc orientation C; read-out: Probe EC50.
For experiment [7], the target named is full-length kinase/Nluc fusion proteins (Homo sapiens, UniProt Q9UK32). Conditions: RPS6KA6 (NP_055311), Nluc orientation N; read-out: Probe EC50.
Experiment [8] has as its target full-length kinase/Nluc fusion proteins (Homo sapiens, UniProt P22607). Conditions: FGFR3, Nluc C; read-out: Probe EC50.
For experiment [9], the target named is full-length kinase/Nluc fusion proteins (Homo sapiens, UniProt P78368). Conditions: CSNK1G2, Nluc N; read-out: Probe EC50.
The target of experiment [10] is full-length kinase/Nluc fusion proteins (Homo sapiens, UniProt O60285). The settings on record: NUAK1, Nluc N; read-out: Probe EC50.
The target in experiment [11] is full-length kinase/Nluc fusion proteins (Homo sapiens, UniProt Q9NWZ3). The settings on record: IRAK4, Nluc C; read-out: Probe EC50.
Experiment [12] concerns the target full-length kinase/Nluc fusion proteins (Homo sapiens, UniProt Q15349). Conditions: RPS6KA2 (NP_001305865), Nluc orientation N; read-out: Probe EC50.
For experiment [13], the target named is full-length kinase/Nluc fusion proteins (Homo sapiens, UniProt Q8NG66). Conditions: NEK11, Nluc N; read-out: Probe EC50.
Experiment [14] deals with full-length kinase/Nluc fusion proteins (Homo sapiens, UniProt P19784). Conditions: CSNK2A2, Nluc C; read-out: Probe EC50.
Experiment [15] deals with full-length kinase/Nluc fusion proteins (Homo sapiens, UniProt Q15375). The settings on record: EPHA7, Nluc C; read-out: Probe EC50.
Experiment [16] has as its target full-length kinase/Nluc fusion proteins (Homo sapiens, UniProt Q6P5Z2). Conditions: PKN3, Nluc C; read-out: Probe EC50.
The target of experiment [17] is full-length kinase/Nluc fusion proteins (Homo sapiens, UniProt O75460). Conditions: ERN1, Nluc C; read-out: Probe EC50.
For experiment [18], the target named is full-length kinase/Nluc fusion proteins (Homo sapiens, UniProt O15146). Conditions: MUSK, Nluc C; read-out: Probe EC50.
Experiment [19] addresses full-length kinase/Nluc fusion proteins (Homo sapiens, UniProt P54646). Conditions: PRKAA2, Nluc N; read-out: Probe EC50.
Experiment [20] has as its target full-length kinase/Nluc fusion proteins (Homo sapiens, UniProt O14936). Conditions: CASK, Nluc N; read-out: Probe EC50.
Experiment [21] has as its target full-length kinase/Nluc fusion proteins (Homo sapiens, UniProt Q9P286). Conditions: PAK7, Nluc C; read-out: Probe EC50.
Experiment [22] has as its target full-length kinase/Nluc fusion proteins (Homo sapiens, UniProt Q05397). The settings on record: PTK2, Nluc N; read-out: Probe EC50.
The target in experiment [23] is full-length kinase/Nluc fusion proteins (Homo sapiens, UniProt P36896). The settings on record: ACVR1B, Nluc C; read-out: Probe EC50.
Experiment [24] has as its target full-length kinase/Nluc fusion proteins (Homo sapiens, UniProt P35590). Conditions: TIE1 (NP_005415), Nluc orientation C; read-out: Probe EC50.
Experiment [25] deals with full-length kinase/Nluc fusion proteins (Homo sapiens, UniProt P54760). Conditions: EPHB4, Nluc C; read-out: Probe EC50.
In experiment [26] the target is full-length kinase/Nluc fusion proteins (Homo sapiens, UniProt P06241). Conditions: FYN, Nluc C; read-out: Probe EC50.
For experiment [27], the target named is full-length kinase/Nluc fusion proteins (Homo sapiens, UniProt P07947). Conditions: YES1 (NP_005424), Nluc orientation C; read-out: Probe EC50.
Experiment [28] deals with full-length kinase/Nluc fusion proteins (Homo sapiens, UniProt P21709). The settings on record: EPHA1, Nluc C; read-out: Probe EC50.
Experiment [29] addresses full-length kinase/Nluc fusion proteins (Homo sapiens, UniProt Q15569). The settings on record: TESK1 (NP_006276), Nluc orientation N; read-out: Probe EC50.
For experiment [30], the target named is full-length kinase/Nluc fusion proteins (Homo sapiens, UniProt O15197). Conditions: EPHB6, Nluc C; read-out: Probe EC50.
Experiment [31] concerns the target full-length kinase/Nluc fusion proteins (Homo sapiens, UniProt P51451). The settings on record: BLK, Nluc N; read-out: Probe EC50.
Experiment [32] deals with full-length kinase/Nluc fusion proteins (Homo sapiens, UniProt O14976). The settings on record: GAK, Nluc N; read-out: Probe EC50.
Sequence of full-length kinase/Nluc fusion proteins (Homo sapiens, UniProt O14976) (O14976 whole entry, the tested form may be a part): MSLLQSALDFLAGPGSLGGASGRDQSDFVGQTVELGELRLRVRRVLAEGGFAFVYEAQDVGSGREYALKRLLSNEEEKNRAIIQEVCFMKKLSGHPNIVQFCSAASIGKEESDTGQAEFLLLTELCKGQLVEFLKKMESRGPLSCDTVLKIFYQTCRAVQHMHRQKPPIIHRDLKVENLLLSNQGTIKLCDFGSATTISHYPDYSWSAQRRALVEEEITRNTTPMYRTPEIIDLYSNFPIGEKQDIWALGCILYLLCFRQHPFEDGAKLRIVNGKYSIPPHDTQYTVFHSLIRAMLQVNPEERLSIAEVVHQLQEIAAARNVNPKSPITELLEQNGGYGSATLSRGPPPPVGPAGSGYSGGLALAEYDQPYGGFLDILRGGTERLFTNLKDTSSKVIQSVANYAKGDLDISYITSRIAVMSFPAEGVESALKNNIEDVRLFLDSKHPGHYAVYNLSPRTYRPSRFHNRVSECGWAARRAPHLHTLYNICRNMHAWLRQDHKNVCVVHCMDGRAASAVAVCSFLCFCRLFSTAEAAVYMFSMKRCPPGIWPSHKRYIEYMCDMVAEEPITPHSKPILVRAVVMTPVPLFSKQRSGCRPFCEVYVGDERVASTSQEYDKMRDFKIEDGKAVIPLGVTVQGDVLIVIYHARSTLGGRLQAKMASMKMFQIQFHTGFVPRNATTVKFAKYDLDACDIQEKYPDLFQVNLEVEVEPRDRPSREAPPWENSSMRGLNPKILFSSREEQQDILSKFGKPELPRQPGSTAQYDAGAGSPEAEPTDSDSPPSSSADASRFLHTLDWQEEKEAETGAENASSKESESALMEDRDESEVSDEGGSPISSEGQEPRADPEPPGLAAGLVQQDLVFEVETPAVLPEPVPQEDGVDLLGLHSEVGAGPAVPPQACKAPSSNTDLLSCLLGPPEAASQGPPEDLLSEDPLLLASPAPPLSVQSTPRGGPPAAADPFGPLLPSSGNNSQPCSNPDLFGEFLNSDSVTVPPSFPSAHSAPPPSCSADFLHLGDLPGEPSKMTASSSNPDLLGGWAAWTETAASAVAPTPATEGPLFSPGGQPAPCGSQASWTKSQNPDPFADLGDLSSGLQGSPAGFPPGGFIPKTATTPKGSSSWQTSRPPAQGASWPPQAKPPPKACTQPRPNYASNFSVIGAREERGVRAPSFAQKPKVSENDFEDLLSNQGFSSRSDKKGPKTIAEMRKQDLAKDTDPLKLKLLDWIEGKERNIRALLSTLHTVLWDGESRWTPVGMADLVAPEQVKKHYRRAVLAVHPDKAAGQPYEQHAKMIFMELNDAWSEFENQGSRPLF

Sequence of full-length kinase/Nluc fusion proteins (Homo sapiens, UniProt P07947) (P07947 whole entry, the tested form may be a part): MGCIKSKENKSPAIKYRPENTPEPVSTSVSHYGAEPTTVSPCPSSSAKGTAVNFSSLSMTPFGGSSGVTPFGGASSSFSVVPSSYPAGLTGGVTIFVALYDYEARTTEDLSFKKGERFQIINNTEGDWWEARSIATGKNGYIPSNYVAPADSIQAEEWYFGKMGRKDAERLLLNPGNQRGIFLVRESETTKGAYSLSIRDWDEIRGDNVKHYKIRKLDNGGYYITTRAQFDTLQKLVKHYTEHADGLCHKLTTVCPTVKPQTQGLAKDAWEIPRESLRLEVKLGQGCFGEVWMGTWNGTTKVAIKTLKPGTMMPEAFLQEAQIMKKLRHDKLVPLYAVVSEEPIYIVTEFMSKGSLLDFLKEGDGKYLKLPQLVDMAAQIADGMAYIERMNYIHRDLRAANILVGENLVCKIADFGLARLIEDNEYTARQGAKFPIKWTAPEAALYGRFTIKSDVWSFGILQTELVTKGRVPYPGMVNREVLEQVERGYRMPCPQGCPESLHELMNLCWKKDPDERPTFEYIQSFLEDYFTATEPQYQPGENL
Sequence of full-length kinase/Nluc fusion proteins (Homo sapiens, UniProt Q15375) (Q15375 28-998): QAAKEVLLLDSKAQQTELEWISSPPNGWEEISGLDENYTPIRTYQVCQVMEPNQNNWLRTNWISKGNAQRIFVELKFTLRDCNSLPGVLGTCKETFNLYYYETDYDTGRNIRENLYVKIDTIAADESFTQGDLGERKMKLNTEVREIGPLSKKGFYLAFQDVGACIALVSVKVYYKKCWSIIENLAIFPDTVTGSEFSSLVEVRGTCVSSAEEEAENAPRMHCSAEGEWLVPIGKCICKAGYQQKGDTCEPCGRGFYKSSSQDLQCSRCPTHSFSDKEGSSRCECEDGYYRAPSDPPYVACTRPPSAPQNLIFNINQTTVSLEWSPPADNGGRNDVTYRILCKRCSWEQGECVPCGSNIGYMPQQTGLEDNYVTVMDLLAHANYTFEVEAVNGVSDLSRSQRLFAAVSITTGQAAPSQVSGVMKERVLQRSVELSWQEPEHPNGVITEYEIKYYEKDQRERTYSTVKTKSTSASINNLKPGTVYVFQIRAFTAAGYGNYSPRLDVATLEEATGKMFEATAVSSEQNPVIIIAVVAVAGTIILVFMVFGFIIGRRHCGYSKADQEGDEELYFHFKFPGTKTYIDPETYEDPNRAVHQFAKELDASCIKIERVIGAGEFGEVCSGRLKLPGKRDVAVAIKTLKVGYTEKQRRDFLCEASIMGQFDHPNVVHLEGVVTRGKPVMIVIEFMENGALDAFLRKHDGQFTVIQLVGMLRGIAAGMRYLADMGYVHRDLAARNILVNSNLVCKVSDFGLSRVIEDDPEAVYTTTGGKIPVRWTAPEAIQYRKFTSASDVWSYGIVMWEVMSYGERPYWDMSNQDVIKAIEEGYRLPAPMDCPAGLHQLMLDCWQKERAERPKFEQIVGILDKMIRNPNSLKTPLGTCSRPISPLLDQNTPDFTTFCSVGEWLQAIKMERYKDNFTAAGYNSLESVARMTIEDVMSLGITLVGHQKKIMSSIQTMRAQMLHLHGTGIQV
Sequence of full-length kinase/Nluc fusion proteins (Homo sapiens, UniProt Q9UF33) (Q9UF33 23-1036): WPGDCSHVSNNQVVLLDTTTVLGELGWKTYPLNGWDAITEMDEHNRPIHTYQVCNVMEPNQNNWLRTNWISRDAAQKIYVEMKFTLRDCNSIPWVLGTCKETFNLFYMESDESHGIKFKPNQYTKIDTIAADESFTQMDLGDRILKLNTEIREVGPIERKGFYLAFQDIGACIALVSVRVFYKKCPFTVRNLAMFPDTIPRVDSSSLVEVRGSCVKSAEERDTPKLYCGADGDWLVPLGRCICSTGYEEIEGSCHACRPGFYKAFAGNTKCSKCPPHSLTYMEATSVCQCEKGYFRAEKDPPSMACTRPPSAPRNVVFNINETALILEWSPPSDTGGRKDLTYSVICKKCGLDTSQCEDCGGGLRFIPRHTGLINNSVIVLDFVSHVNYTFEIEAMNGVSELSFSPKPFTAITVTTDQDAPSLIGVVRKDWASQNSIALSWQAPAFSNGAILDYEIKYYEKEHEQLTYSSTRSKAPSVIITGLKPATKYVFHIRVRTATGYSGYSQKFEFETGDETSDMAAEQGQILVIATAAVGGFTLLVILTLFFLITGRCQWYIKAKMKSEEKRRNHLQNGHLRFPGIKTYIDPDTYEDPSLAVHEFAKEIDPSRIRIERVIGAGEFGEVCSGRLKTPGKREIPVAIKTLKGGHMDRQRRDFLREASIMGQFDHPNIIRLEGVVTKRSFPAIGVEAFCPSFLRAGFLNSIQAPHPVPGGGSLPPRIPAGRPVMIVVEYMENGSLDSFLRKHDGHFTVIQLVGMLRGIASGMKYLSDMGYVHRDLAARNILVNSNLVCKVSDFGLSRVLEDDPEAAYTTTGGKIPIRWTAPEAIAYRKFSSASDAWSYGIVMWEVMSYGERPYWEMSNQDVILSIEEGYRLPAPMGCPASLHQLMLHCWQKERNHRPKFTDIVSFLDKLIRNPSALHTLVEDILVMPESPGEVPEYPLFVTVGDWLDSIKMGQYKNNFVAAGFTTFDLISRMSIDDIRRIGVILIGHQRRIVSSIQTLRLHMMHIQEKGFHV
Sequence of full-length kinase/Nluc fusion proteins (Homo sapiens, UniProt Q9P286) (Q9P286 whole entry, the tested form may be a part): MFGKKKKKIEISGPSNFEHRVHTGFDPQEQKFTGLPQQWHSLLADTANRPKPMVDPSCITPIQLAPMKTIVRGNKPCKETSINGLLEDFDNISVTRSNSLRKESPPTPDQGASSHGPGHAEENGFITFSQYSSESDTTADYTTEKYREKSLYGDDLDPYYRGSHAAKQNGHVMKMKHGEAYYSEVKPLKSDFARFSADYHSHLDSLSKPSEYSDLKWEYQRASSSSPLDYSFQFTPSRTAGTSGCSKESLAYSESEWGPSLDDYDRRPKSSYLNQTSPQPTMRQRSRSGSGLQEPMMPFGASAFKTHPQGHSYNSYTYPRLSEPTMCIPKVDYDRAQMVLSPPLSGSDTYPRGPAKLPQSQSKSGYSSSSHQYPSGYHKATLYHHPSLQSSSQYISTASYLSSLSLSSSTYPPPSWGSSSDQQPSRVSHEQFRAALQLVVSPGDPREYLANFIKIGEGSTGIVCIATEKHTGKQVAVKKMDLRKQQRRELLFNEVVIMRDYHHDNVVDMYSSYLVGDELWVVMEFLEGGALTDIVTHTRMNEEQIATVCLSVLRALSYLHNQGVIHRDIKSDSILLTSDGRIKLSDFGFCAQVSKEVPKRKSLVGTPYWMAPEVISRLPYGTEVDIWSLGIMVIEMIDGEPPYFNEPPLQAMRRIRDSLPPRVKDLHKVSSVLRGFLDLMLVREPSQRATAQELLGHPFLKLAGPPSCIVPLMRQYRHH
Sequence of full-length kinase/Nluc fusion proteins (Homo sapiens, UniProt Q9NWZ3) (Q9NWZ3 whole entry, the tested form may be a part): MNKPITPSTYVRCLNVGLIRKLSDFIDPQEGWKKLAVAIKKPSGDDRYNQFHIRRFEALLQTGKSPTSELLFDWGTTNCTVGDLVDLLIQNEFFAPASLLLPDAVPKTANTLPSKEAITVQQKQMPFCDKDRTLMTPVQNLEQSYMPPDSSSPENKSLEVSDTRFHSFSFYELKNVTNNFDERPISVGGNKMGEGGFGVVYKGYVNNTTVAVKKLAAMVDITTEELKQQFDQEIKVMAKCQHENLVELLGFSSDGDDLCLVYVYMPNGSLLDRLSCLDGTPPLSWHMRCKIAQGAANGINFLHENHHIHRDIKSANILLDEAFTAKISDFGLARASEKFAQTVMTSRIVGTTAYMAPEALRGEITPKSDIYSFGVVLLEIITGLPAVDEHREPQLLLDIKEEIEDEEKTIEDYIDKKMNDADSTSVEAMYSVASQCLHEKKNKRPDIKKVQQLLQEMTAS

On to `CNC(=O)c1ccccc1Nc1nc(Nc2ccc(N3CCN(C(=O)CCOCCOCCOCCOCCNC(=O)CCc4ccc5n4[B-](F)(F)[N+]4=C(c6ccc[nH]6)C=CC4=C5)CC3)cc2)ncc1Cl` [Energy Transfer Probe 5, 2-((2-((4-(4-(1-amino-3,6,9,12-tetraoxapentadecan-15-oyl)piperazin-1-yl)phenyl)amino)-5-chloropyrimidin-4-yl)amino)-N-methylbenzamide-NanoBRET 590], for which the EC50 was greater than 1000 nM in experiment [1]; greater than 1000 nM in [2]; 400 nM in [3]; 300 nM in experiment [4]; 400 nM in [5]; 300 nM in [6]. For the same compound, the EC50 in [7] is 400 nM; in experiment [8], 500 nM; in experiment [9], greater than 1000 nM; in experiment [10] it was 100 nM; in experiment [11], greater than 1000 nM; in experiment [12] it was 600 nM. Also, the EC50 in experiment [13], in experiment [14], in experiment [15], in experiment [16], in experiment [17] and in [18] was greater than 1000 nM each time. The EC50 is greater than 1000 nM in [19]; greater than 1000 nM in experiment [20]; greater than 1000 nM in experiment [21]; 90 nM in experiment [22]; greater than 1000 nM in experiment [23]; 100 nM in [24].
On to `Cc1nc(Nc2ncc(C(=O)Nc3c(C)cccc3Cl)s2)cc(N2CCN(CCOCCNC(=O)CCc3ccc4n3[B-](F)(F)[N+]3=C(c5ccc[nH]5)C=CC3=C4)CC2)n1` [Energy Transfer Probe 6, 2-((6-(4-(2-(2-aminoethoxy)ethyl)piperazin-1-yl)-2-methylpyrimidin-4-yl)amino)-N-(2-chloro-6-methylphenyl)thiazole-5-carboxamide-NanoBRET 590], for which the EC50 in experiment [25] is 10 nM; in experiment [26], 500 nM; in [27], 600 nM; in [28] it was 300 nM; in experiment [29] it was greater than 1000 nM; in [30], greater than 1000 nM. Moreover, the values for the EC50 in experiment [31] and in [32] were 300 nM and 500 nM, respectively.

Usually EC50 stands for the concentration giving half of the maximal effect.
